# Assay results published in patent US20220226341A1, “Pharmaceutical Composition for Alzheimer's Disease” (Kyoto University, priority 2019, published 2022).
# How the values were obtained:
# CDK9/CycT1 = CDK9/CycT1 (Homo sapiens, UniProt P50750); assay: CDK9 inhibitory activity, Off-chip Mobility Shift Assay (MSA); format: biochemical; conditions: room temperature, one hour, read-out: IC50 value with respect to CDK9/CycT1
# Protocol: [Assay of CDK9 Inhibitory Activity]
# The tests for confirming CDK9 inhibitory activity were carried out by the following procedure according to Off-chip Mobility Shift Assay (MSA).
# A substrate/ATP/metal solution (4×) was prepared with use of a kit buffer (20 mM HEPES, 0.01% Triton X-100, 5 mM DTT, pH7.5). A kinase solution (2×) was prepared with use of an assay buffer.
# 2) The test substance solutions, the substrate/ATP/metal solution, and the kinase solution were mixed in wells of a polypropylene plate, and were caused to react at room temperature for one hour.
# 3) A termination buffer (QuickScout Screening Assist MSA; Cama Biosciences Inc.)
# was added thereto to stop the reaction.
# 4) Substrate peptides and phosphorylated peptides in the reaction solutions were separated and quantified in LabChip™ System (PerkinElmer Co., Ltd.).
# 5) Kinase reaction activities were evaluated based on a product ratio (P/(P+S)) calculated from a peak height of the substrate peptide (S) and a peak height of the phosphorylated peptide (P).
# [1] = Tissue distribution of radioactivity after single intravenous administration of 14C-labeled Compound 1 (blood-brain barrier penetration); format: in vivo; conditions: rats, single iv 5 mg/kg 14C-labeled, n = 3
# Protocol: [Testing the Penetration of the Compound Through the Blood-Brain Barrier]
# Brain permeability (intracerebral transferability) of Compound 1 was evaluated.
# ^14C-labeled Compound 1 was intravenously administered once in a dose of 5 mg/kg (3.52 MBq/kg) to rats, and histological distribution (biodistribution) thereof was studied.
# Sequence of CDK9/CycT1 (P50750 whole entry): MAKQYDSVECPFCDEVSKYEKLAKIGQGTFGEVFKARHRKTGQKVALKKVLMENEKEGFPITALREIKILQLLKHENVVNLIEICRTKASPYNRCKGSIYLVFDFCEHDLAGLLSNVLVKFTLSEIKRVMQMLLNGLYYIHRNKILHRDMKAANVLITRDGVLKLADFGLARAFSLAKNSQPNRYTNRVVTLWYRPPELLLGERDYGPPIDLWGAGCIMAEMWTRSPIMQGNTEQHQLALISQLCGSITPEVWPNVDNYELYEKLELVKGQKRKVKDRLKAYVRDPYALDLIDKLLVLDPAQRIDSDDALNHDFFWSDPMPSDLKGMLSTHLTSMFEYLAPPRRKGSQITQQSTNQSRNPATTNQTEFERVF
# Sequence of CDK9/CycT1 (O60563 whole entry partner): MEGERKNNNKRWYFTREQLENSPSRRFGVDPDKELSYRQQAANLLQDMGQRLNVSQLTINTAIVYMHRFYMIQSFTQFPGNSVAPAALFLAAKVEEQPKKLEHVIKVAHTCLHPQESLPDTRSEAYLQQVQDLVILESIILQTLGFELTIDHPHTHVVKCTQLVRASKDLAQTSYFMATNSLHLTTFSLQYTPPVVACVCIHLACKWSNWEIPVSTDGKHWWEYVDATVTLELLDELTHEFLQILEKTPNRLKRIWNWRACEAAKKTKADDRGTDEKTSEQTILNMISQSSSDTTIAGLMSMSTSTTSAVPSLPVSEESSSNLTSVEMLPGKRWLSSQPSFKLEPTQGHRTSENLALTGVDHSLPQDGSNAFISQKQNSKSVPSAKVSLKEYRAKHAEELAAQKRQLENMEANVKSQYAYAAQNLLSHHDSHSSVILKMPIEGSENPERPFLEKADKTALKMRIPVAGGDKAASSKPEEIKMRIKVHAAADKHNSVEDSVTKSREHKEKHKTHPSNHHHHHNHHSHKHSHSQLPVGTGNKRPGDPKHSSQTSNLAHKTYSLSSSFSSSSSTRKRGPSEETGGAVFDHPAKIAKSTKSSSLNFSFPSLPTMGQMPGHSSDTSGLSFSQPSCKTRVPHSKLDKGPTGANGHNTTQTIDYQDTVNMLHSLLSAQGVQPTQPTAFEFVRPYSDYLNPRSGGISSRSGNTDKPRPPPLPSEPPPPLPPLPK
structure (smiles),measurement,setting,value
Fc1ccc(N2CCCCC2)c(NC(=S)c2ccncc2)c1 [Compound 1],IC50,CDK9/CycT1,5.8 µM
same,Radioactivity concentration,"[1]; Adrenal gland, 5 min",47334.91 ng eq. of Compound 1/g or mL
same,Radioactivity concentration,"[1]; Adrenal gland, 6 h",1517.3 ng eq. of Compound 1/g or mL
same,Radioactivity concentration,"[1]; Adrenal gland, 24 h",195.16 ng eq. of Compound 1/g or mL
same,Radioactivity concentration,"[1]; Adrenal gland, 72 h",23.21 ng eq. of Compound 1/g or mL
same,Radioactivity concentration,"[1]; Aorta, 5 min",1995.27 ng eq. of Compound 1/g or mL
same,Radioactivity concentration,"[1]; Aorta, 6 h",730.03 ng eq. of Compound 1/g or mL
same,Radioactivity concentration,"[1]; Aorta, 24 h",76.22 ng eq. of Compound 1/g or mL
same,Radioactivity concentration,"[1]; Bonemarrow, 5 min",6109.89 ng eq. of Compound 1/g or mL
same,Radioactivity concentration,"[1]; Bonemarrow, 6 h",900.75 ng eq. of Compound 1/g or mL
same,Radioactivity concentration,"[1]; Bonemarrow, 24 h",106.7 ng eq. of Compound 1/g or mL
same,Radioactivity concentration,"[1]; Brown fat, 5 min",8467.9 ng eq. of Compound 1/g or mL
same,Radioactivity concentration,"[1]; Brown fat, 6 h",6412.21 ng eq. of Compound 1/g or mL
same,Radioactivity concentration,"[1]; Brown fat, 24 h",217.43 ng eq. of Compound 1/g or mL
same,Radioactivity concentration,"[1]; Brown fat, 72 h",11.3 ng eq. of Compound 1/g or mL
same,Radioactivity concentration,"[1]; Cecum, 5 min",5555.55 ng eq. of Compound 1/g or mL
same,Radioactivity concentration,"[1]; Cecum, 6 h",3979.48 ng eq. of Compound 1/g or mL
same,Radioactivity concentration,"[1]; Epididymis, 5 min",2568.88 ng eq. of Compound 1/g or mL
same,Radioactivity concentration,"[1]; Epididymis, 6 h",1809.29 ng eq. of Compound 1/g or mL
same,Radioactivity concentration,"[1]; Epididymis, 24 h",312.66 ng eq. of Compound 1/g or mL
same,Radioactivity concentration,"[1]; Epididymis, 72 h",21.99 ng eq. of Compound 1/g or mL
same,Radioactivity concentration,"[1]; Eyeball, 5 min",1785.93 ng eq. of Compound 1/g or mL
same,Radioactivity concentration,"[1]; Eyeball, 6 h",960.39 ng eq. of Compound 1/g or mL
same,Radioactivity concentration,"[1]; Eyeball, 24 h",117.64 ng eq. of Compound 1/g or mL
same,Radioactivity concentration,"[1]; Eyeball, 72 h",7.03 ng eq. of Compound 1/g or mL
same,Radioactivity concentration,"[1]; Fat, 5 min",1181.88 ng eq. of Compound 1/g or mL
same,Radioactivity concentration,"[1]; Fat, 6 h",5031.8 ng eq. of Compound 1/g or mL
same,Radioactivity concentration,"[1]; Fat, 24 h",1665.35 ng eq. of Compound 1/g or mL
same,Radioactivity concentration,"[1]; Fat, 72 h",112.35 ng eq. of Compound 1/g or mL
same,Radioactivity concentration,"[1]; Harderian gland, 5 min",12633.83 ng eq. of Compound 1/g or mL
same,Radioactivity concentration,"[1]; Harderian gland, 6 h",1418.19 ng eq. of Compound 1/g or mL
same,Radioactivity concentration,"[1]; Harderian gland, 24 h",131.47 ng eq. of Compound 1/g or mL
same,Radioactivity concentration,"[1]; Harderian gland, 72 h",8.95 ng eq. of Compound 1/g or mL
same,Radioactivity concentration,"[1]; Heart, 5 min",8604.53 ng eq. of Compound 1/g or mL
same,Radioactivity concentration,"[1]; Heart, 6 h",912.54 ng eq. of Compound 1/g or mL
same,Radioactivity concentration,"[1]; Heart, 24 h",105.78 ng eq. of Compound 1/g or mL
same,Radioactivity concentration,"[1]; Heart, 72 h",10.01 ng eq. of Compound 1/g or mL
same,Radioactivity concentration,"[1]; Kidney, 5 min",13230.64 ng eq. of Compound 1/g or mL
same,Radioactivity concentration,"[1]; Kidney, 6 h",2138.26 ng eq. of Compound 1/g or mL
same,Radioactivity concentration,"[1]; Kidney, 24 h",264.55 ng eq. of Compound 1/g or mL
same,Radioactivity concentration,"[1]; Kidney, 72 h",31.5 ng eq. of Compound 1/g or mL
same,Radioactivity concentration,"[1]; Kidney, 168 h",12.02 ng eq. of Compound 1/g or mL
same,Radioactivity concentration,"[1]; Liver, 5 min",29518.18 ng eq. of Compound 1/g or mL
same,Radioactivity concentration,"[1]; Liver, 6 h",3033.96 ng eq. of Compound 1/g or mL
same,Radioactivity concentration,"[1]; Liver, 24 h",740.19 ng eq. of Compound 1/g or mL
same,Radioactivity concentration,"[1]; Liver, 72 h",180.72 ng eq. of Compound 1/g or mL
same,Radioactivity concentration,"[1]; Liver, 168 h",48.2 ng eq. of Compound 1/g or mL
same,Radioactivity concentration,"[1]; Lung, 5 min",7645.96 ng eq. of Compound 1/g or mL
same,Radioactivity concentration,"[1]; Lung, 6 h",1247.84 ng eq. of Compound 1/g or mL
same,Radioactivity concentration,"[1]; Lung, 24 h",175.43 ng eq. of Compound 1/g or mL
same,Radioactivity concentration,"[1]; Lung, 72 h",33.55 ng eq. of Compound 1/g or mL
same,Radioactivity concentration,"[1]; Lung, 168 h",12.98 ng eq. of Compound 1/g or mL
same,Radioactivity concentration,"[1]; Mandibular gland, 5 min",13355.34 ng eq. of Compound 1/g or mL
